Source: US12023391B2, “Alpha(v)beta(6) integrin-binding peptides and methods of use thereof” (The Regents of the University of California, priority 2016, dated 2024)
Where two headings read alike, the source gives them in different places. Residues, ends and D or L forms follow the SMILES beside them. *: point of attachment. Benzoyl(4-F) = O=C(c1ccc(F)cc1)*

What was measured:
αvβ6 integrin = αvβ6 integrin (Homo sapiens, UniProt P06756+P18564); assay: Competitive binding ELISA with purified integrin, αvβ6
Description: (§1) Small aliquots (50 mg, ˜150,000 beads) were incubated with a mixture of red fluorescent DX3 ITGβ6 mCherry (αvβ6-positive) and green fluorescent DX3 EmGFP (αvβ6-negative) cells for 3 hours and evaluated under a fluorescent microscope. Beads that were covered only by red (i.e. αvβ6-positive) cells were isolated; these beads were subsequently characterized by Edman sequencing. Following synthesis of the identified peptides, competitive binding ELISA was performed with purified integrin to evaluate binding specificities for the target αvβ6 integrin as well as closely related αv-integrins.
(§2) Anti-αv capture antibody P2W7 (5 μg/mL, Novus Biologicals) was coated onto Nunc MaxiSorp 96-well plates, followed by blocking with BSA overnight at 4° C. All wells were washed 3 times with PBS, followed by plating of purified integrin (3 μg/mL) and incubating at room temperature in a humid chamber for 1 hour. Peptide solutions, titrated (1 μM-1 pM for αvβ6 integrin and 100 μM-100 pM for αvβ3 integrin) and mixed with biotinylated natural ligand, were added to the integrin-coated wells in triplicate. […] Captured biotinylated natural ligand was detected with ExtrAvidin-HRP and developed with TMB substrate. Half-maximal inhibitory concentration (IC50) of peptides was determined fitting to sigmoidal dose-response model in GraphPad Prism 6.0 (FIG. 5A).

[1] = molecular target: (Homo sapiens, UniProt P06756+P18084); assay: Competitive binding ELISA with purified integrin, αvβ4 (so in the source)
Description: as §1
Anti-αv capture antibody P2W7 (5 μg/mL, Novus Biologicals) was coated onto Nunc MaxiSorp 96-well plates, followed by blocking with BSA overnight at 4° C. All wells were washed 3 times with PBS, followed by plating of purified integrin (3 μg/mL) and incubating at room temperature in a humid chamber for 1 hour. Peptide solutions, titrated (1 μM-1 pM for αvβ6 integrin and 100 μM-100 pM for αvβ3 integrin) and mixed with biotinylated natural ligand, were added to the integrin-coated wells in triplicate. After incubating for an hour at room temperature, the plate was washed 3 times with wash buffer. Captured biotinylated natural ligand was detected with ExtrAvidin-HRP and developed with TMB substrate. Half-maximal inhibitory concentration (IC50) of peptides was determined fitting to sigmoidal dose-response model in GraphPad Prism 6.0 (FIG. 5A).

αvβ3 integrin = αvβ3 integrin (Homo sapiens, UniProt P05106+P06756); assay: Competitive binding ELISA with purified integrin, αvβ3
Description: as §1, with “As described further below, a 9-mer XXDLXXLXK(FB) (SEQ ID NO: 23) peptide library was assembled on TentaGel resin (1 g, ˜3,000,000 beads) using standard Fmoc chemistry. Small” for “Small”
as §2, with “hour.” for “hour. Peptide solutions, titrated (1 μM-1 pM for αvβ6 integrin and 100 μM-100 pM for αvβ3 integrin) and mixed with biotinylated natural ligand, were added to the integrin-coated wells in triplicate.”, “5A). […]” for “5A).”

[2] = test system: DX3puroβ6 (αvβ6-positive) and DX3 puro (αvβ6-negative) cells; assay: Flow cytometry binding to DX3puroβ6 and DX3 puro cells; type: cell-based, human; conditions: peptide concentrations of 10 μM and 100 μM
Description: FIGS. 8A and 8B show binding of a peptide labeled with FAM-X ([…]-FAM-X; SEQ ID NO:15) to DX3puroβ6 and DX3 puro cells. […] 150,000 cells were used in each experiment. […] These studies used 75,000, 150,000, or 300,000 cells per experiment. The control experiment used 300,000 unstained cells.
Flow cytometry was used to assay the binding of a peptide labeled with FAM-X ([…]-FAM-X; SEQ ID NO:15) to DX3puroβ6 and DX3 puro cells.

[3] = Log P of radiolabeled peptide; type: physicochemical; conditions: peptide radiolabeled with [18F]fluorobenzoic acid
Description: (§3) Based on selectivity profiles of all peptides, the ST1-62 peptide was selected to move forward for radiolabeling with [^18F]fluorobenzoic acid for log P, serum stability, and cell binding studies. Log P=−1.09±0.02 (FIG. 6B). Serum stability of the peptide was determined at 1 hour after incubating with mouse serum at 37° C. (FIG. 7A).

[4] = Serum stability in mouse serum, HPLC analysis; type: in vitro ADME; conditions: [18F]-radiolabeled peptide, 37° C., an hour
Description: Serum stability study analysis of Peptide 1 (ST1-62) (SEQ ID NO:2) was performed by first incubating the radiolabeled peptide ([^18F]; 25 μCi) with commercially available mouse serum at 37° C. for an hour. The radiotracer was removed from serum by precipitating out the protein with cold EtOH and then injected into a HPLC for analysis.
as §3

αvβ1 = αvβ1 (Homo sapiens, UniProt P05556+P06756); assay: Competitive binding ELISA with purified integrin, αvβ1
Description: as §1, with “As described further below, a 9-mer XXDLXXLXK(FB) (SEQ ID NO: 23) peptide library was assembled on TentaGel resin (1 g, ˜3,000,000 beads) using standard Fmoc chemistry. Small” for “Small”
as §2, with “hour.” for “hour. Peptide solutions, titrated (1 μM-1 pM for αvβ6 integrin and 100 μM-100 pM for αvβ3 integrin) and mixed with biotinylated natural ligand, were added to the integrin-coated wells in triplicate.”, “5A). […]” for “5A).”

Compound: CN[C@H](C(=O)NCC(=O)N[C@@H](CC(=O)O)C(=O)N[C@@H](CC(C)C)C(=O)N[C@H](C(=O)N[C@@H](Cc1ccc(O)cc1)C(=O)N[C@@H](CC(C)C)C(=O)N[C@@H](CCCCN)C(=O)N[C@@H](CCCCNC(=O)c1ccc(F)cc1)C(N)=O)[C@@H](C)O)C(C)C
- IC50 (αvβ6 integrin): 0.5 µM

Compound: CSCC[C@H](NC(=O)[C@H](CC(C)C)NC(=O)[C@H](CC(=O)O)NC(=O)CNC(=O)[C@@H](N)CCCNC(=N)N)C(=O)N[C@@H](CCCCN)C(=O)N[C@@H](CC(C)C)C(=O)N[C@@H](C)C(=O)N[C@@H](CCCCNC(=O)c1ccc(F)cc1)C(N)=O [ST1-59] (H-RGDLMKLAK(Benzoyl(4-F))-NH2)
- IC50 [1]: > 100 µM

Compound: CC(C)C[C@H](NC(=O)[C@H](CC(=O)O)NC(=O)CNC(=O)[C@@H](N)CCCNC(=N)N)C(=O)N[C@@H](C)C(=O)N[C@@H](CC(=O)O)C(=O)N[C@@H](CC(C)C)C(=O)N[C@@H](CCCNC(=N)N)C(=O)N[C@@H](CCCCNC(=O)c1ccc(F)cc1)C(N)=O [ST1-60] (H-RGDLADLRK(Benzoyl(4-F))-NH2)
- IC50 ([1]; competitive binding ELISA, read-out: IC50 αvβ4): > 100 µM
- IC50 (αvβ3 integrin): 0.5 µM

Compound: VGDLTYLKK-FAM-X (FAM label; C-term FAM-X, fluorescein dye/label) [Fluorescent labeled peptide]
- Binding to αvβ6-positive versus αvβ6-negative cells [2]: increased binding to the αvβ6-positive cells than the αvβ6-negative cells

Compound: CC(C)C[C@H](NC(=O)[C@H](Cc1ccc(O)cc1)NC(=O)[C@@H](NC(=O)[C@H](CC(C)C)NC(=O)[C@H](CC(=O)O)NC(=O)CNC(=O)[C@@H](N)C(C)C)[C@@H](C)O)C(=O)N[C@@H](CCCCN)C(=O)N[C@@H](CCCCNC(=O)c1ccc(F)cc1)C(N)=O [ST1-62]
- logP [3]: -1.09 ± 0.02
- IC50 [1]: > 100 µM
- Serum stability [4]: cleaved by proteases within an hour
- IC50 (αvβ1): > 100 µM

Compound: CC(C)C[C@H](NC(=O)[C@H](CCC(=O)O)NC(=O)[C@H](CCCNC(=N)N)NC(=O)[C@H](CC(C)C)NC(=O)[C@H](CC(=O)O)NC(=O)CNC(=O)[C@@H](N)CCCNC(=N)N)C(=O)N[C@@H](C)C(=O)N[C@@H](CCCCNC(=O)c1ccc(F)cc1)C(N)=O [ST1-61] (H-RGDLRELAK(Benzoyl(4-F))-NH2)
- IC50 [1]: > 100 µM
